Experimental data taken from paper PMC6747015, “Structure–function study of a novel inhibitor of the casein kinase 1 family in Arabidopsis thaliana” (Plant Direct, 2019).

Tests used:
CKL1 = CKL1 (Arabidopsis thaliana, UniProt P42158); test: In vitro CKL1 kinase activity; type: biochemical
Text: Supplemental Figure3.InvitroCKL1 kinaseactivitywithAMI-331.

[1] = test system: ATSK (GSK3) family proteins; test: AMI‐329 bead binding with AMI‐331 competitor, ATSK family; design: species or system Arabidopsis thaliana; conditions: 50 µM AMI‐331 as competitor
Procedure: (§1) Screening for proteins bound to AMI‐329 beads was done by a method similar to what has previously been described (Uehara et al., 2019). Briefly, two‐week‐old seedlings grown under LD conditions were harvested at time points ZT2, ZT6, ZT9, and ZT17, and stored at −80°C. Proteins from the frozen plant samples were incubated with 0, 5, or 50 µM of AMI‐331 at 4°C for 30 min with rotary mixing. Two technical replicates were used for each experiment. PBS‐washed AMI‐329 beads were added to the protein samples and gently rotated at 4°C for 1 hr. AMI‐329 bead resins were washed with bead buffer (Uehara et al., 2019) six times. The washed resins were suspended in SDS sample buffer and boiled for 8 min. Protein samples were in‐gel‐digested as previously described (Uehara et al., 2019). Peptides were analyzed with a Q Exactive hybrid quadrupole‐orbitrap mass spectrometer (Thermo Fisher Scientific), as described previously (Uehara et al., 2019). MS/MS spectra were interpreted, and peak lists were generated using Proteome Discoverer 2.0.0.802 (Thermo Fisher Scientific). Searches were performed using SEQUEST (Thermo Fisher Scientific) against the Arabidopsis thaliana (TAIR TaxID = 3,702) peptide sequence database. […]
(§2) To examine other potential targets of AMI‐331, we analyzed the spectra for PHA767491 target proteins (Uehara et al., 2019). […]

CPK family = test: AMI‐329 bead binding with AMI‐331 competitor, CPK family; design: species or system Arabidopsis thaliana
Procedure: as §1, §2

CKL1 (AT4G26100) = molecular target: T1, CKL1 (AT4G26100) (Arabidopsis thaliana, UniProt P42158); test: AMI‐329 bead binding with AMI‐331 competitor, CKL1
T1 construct: from tissue; host or cells: Arabidopsis seedlings, two weeks old
Procedure: as §1, with “2019).” for “2019). MS/MS spectra were interpreted, and peak lists were generated using Proteome Discoverer 2.0.0.802 (Thermo Fisher Scientific). Searches were performed using SEQUEST (Thermo Fisher Scientific) against the Arabidopsis thaliana (TAIR TaxID = 3,702) peptide sequence database.”
(§3) However, another possible mechanism for the strong AMI‐331 biological activity in vivo is that it targets proteins other than the CK1 family for period lengthening. […] It is noteworthy that kinase AT4G08800 is very similar to the CKL family, but the ATP‐binding pocket of mammalian CK1 as determined by its crystal structure (Shinohara et al., 2017) was absent from AT4G08800, as shown in an Araport 11 model (https://www.araport.org). […]

CKL2 (AT1G72710) = molecular target: T2, CKL2 (AT1G72710) (Arabidopsis thaliana, UniProt Q9CAI5); test: AMI‐329 bead binding with AMI‐331 competitor, CKL2
T2 construct: from tissue; host or cells: Arabidopsis seedlings, two weeks old
Procedure: as §1, with “2019).” for “2019). MS/MS spectra were interpreted, and peak lists were generated using Proteome Discoverer 2.0.0.802 (Thermo Fisher Scientific). Searches were performed using SEQUEST (Thermo Fisher Scientific) against the Arabidopsis thaliana (TAIR TaxID = 3,702) peptide sequence database.”
as §3

CKL7 (AT5G44100) = molecular target: T3, CKL7 (AT5G44100) (Arabidopsis thaliana, UniProt Q9FFH8); test: AMI‐329 bead binding with AMI‐331 competitor, CKL7
T3 construct: from tissue; host or cells: Arabidopsis seedlings, two weeks old
Procedure: as §1, with “2019).” for “2019). MS/MS spectra were interpreted, and peak lists were generated using Proteome Discoverer 2.0.0.802 (Thermo Fisher Scientific). Searches were performed using SEQUEST (Thermo Fisher Scientific) against the Arabidopsis thaliana (TAIR TaxID = 3,702) peptide sequence database.”
as §3

CKL8 (AT5G43320) = molecular target: T4, CKL8 (AT5G43320) (Arabidopsis thaliana, UniProt Q9LSX4); test: AMI‐329 bead binding with AMI‐331 competitor, CKL8
T4 construct: from tissue; host or cells: Arabidopsis seedlings, two weeks old
Procedure: as §1, with “2019).” for “2019). MS/MS spectra were interpreted, and peak lists were generated using Proteome Discoverer 2.0.0.802 (Thermo Fisher Scientific). Searches were performed using SEQUEST (Thermo Fisher Scientific) against the Arabidopsis thaliana (TAIR TaxID = 3,702) peptide sequence database.”
as §3

CKL12 (AT5G57015) = molecular target: T5, CKL12 (AT5G57015) (Arabidopsis thaliana, UniProt Q8VYK9); test: AMI‐329 bead binding with AMI‐331 competitor, CKL12
T5 construct: from tissue; host or cells: Arabidopsis seedlings, two weeks old
Procedure: as §1, with “2019).” for “2019). MS/MS spectra were interpreted, and peak lists were generated using Proteome Discoverer 2.0.0.802 (Thermo Fisher Scientific). Searches were performed using SEQUEST (Thermo Fisher Scientific) against the Arabidopsis thaliana (TAIR TaxID = 3,702) peptide sequence database.”
as §3

CKL13 (AT1G04440) = molecular target: T6, CKL13 (AT1G04440) (Arabidopsis thaliana, UniProt Q5XF24); test: AMI‐329 bead binding with AMI‐331 competitor, CKL13
T6 construct: from tissue; host or cells: Arabidopsis seedlings, two weeks old
Procedure: as §1, with “2019).” for “2019). MS/MS spectra were interpreted, and peak lists were generated using Proteome Discoverer 2.0.0.802 (Thermo Fisher Scientific). Searches were performed using SEQUEST (Thermo Fisher Scientific) against the Arabidopsis thaliana (TAIR TaxID = 3,702) peptide sequence database.”
as §3

LUP1 (AT1G78970) = molecular target: T7, LUP1 (AT1G78970) (Arabidopsis thaliana, UniProt Q9C5M3); test: AMI‐329 bead binding with AMI‐331 competitor, LUP1
T7 construct: from tissue; host or cells: Arabidopsis seedlings, two weeks old
Procedure: as §1, with “2019).” for “2019). MS/MS spectra were interpreted, and peak lists were generated using Proteome Discoverer 2.0.0.802 (Thermo Fisher Scientific). Searches were performed using SEQUEST (Thermo Fisher Scientific) against the Arabidopsis thaliana (TAIR TaxID = 3,702) peptide sequence database.”
as §3

[2] = molecular target: T8, Membrane protein AT5G40670 (Arabidopsis thaliana, UniProt P57758); test: AMI‐329 bead binding with AMI‐331 competitor, membrane protein AT5G40670
T8 construct: from tissue; host or cells: Arabidopsis seedlings, two weeks old
Procedure: as §1, with “2019).” for “2019). MS/MS spectra were interpreted, and peak lists were generated using Proteome Discoverer 2.0.0.802 (Thermo Fisher Scientific). Searches were performed using SEQUEST (Thermo Fisher Scientific) against the Arabidopsis thaliana (TAIR TaxID = 3,702) peptide sequence database.”
as §3

NRPB3 (AT2G15430) = molecular target: T9, NRPB3 (AT2G15430) (Arabidopsis thaliana, UniProt Q39211); test: AMI‐329 bead binding with AMI‐331 competitor, NRPB3
T9 construct: from tissue; host or cells: Arabidopsis seedlings, two weeks old
Procedure: as §1, with “2019).” for “2019). MS/MS spectra were interpreted, and peak lists were generated using Proteome Discoverer 2.0.0.802 (Thermo Fisher Scientific). Searches were performed using SEQUEST (Thermo Fisher Scientific) against the Arabidopsis thaliana (TAIR TaxID = 3,702) peptide sequence database.”
as §3

Reductase C (AT2G41680) = molecular target: T10, Reductase C (AT2G41680) (Arabidopsis thaliana, UniProt O22229); test: AMI‐329 bead binding with AMI‐331 competitor, reductase C
T10 construct: Proteins from the frozen plant samples were incubated with 0, 5, or 50 µM of AMI‐331; from tissue; host or cells: two-week-old Arabidopsis seedlings (protein lysate)
Procedure: as §1, with “2019).” for “2019). MS/MS spectra were interpreted, and peak lists were generated using Proteome Discoverer 2.0.0.802 (Thermo Fisher Scientific). Searches were performed using SEQUEST (Thermo Fisher Scientific) against the Arabidopsis thaliana (TAIR TaxID = 3,702) peptide sequence database.”
as §3

YAK1 (AT5G35980) = molecular target: T11, YAK1 (AT5G35980) (Arabidopsis thaliana, UniProt Q8RWH3); test: AMI‐329 bead binding with AMI‐331 competitor, YAK1
T11 construct: Proteins from the frozen plant samples were incubated with 0, 5, or 50 µM of AMI‐331; from tissue; host or cells: two-week-old Arabidopsis seedlings (protein lysate)
Procedure: as §1, with “2019).” for “2019). MS/MS spectra were interpreted, and peak lists were generated using Proteome Discoverer 2.0.0.802 (Thermo Fisher Scientific). Searches were performed using SEQUEST (Thermo Fisher Scientific) against the Arabidopsis thaliana (TAIR TaxID = 3,702) peptide sequence database.”
as §3

T8 sequence (P57758 whole entry): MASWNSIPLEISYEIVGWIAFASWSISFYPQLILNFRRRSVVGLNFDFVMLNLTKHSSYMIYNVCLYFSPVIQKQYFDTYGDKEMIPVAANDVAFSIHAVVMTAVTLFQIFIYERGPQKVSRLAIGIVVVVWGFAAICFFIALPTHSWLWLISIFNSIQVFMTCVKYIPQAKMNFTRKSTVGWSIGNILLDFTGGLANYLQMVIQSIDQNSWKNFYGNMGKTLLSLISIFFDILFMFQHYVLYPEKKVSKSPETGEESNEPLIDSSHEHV
T6 sequence (Q5XF24 whole entry): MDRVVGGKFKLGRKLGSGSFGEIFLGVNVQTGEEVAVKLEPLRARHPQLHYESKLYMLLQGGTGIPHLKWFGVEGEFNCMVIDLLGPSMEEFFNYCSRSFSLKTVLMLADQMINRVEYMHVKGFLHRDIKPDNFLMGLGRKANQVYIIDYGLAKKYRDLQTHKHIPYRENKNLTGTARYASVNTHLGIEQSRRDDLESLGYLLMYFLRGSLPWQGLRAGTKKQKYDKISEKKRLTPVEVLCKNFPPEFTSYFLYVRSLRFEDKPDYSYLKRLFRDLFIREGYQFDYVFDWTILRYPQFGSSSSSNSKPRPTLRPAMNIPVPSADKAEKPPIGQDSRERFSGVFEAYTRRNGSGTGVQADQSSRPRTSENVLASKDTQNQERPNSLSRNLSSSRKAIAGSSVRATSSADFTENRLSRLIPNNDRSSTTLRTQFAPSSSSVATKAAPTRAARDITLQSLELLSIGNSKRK
T10 sequence (O22229 68-529): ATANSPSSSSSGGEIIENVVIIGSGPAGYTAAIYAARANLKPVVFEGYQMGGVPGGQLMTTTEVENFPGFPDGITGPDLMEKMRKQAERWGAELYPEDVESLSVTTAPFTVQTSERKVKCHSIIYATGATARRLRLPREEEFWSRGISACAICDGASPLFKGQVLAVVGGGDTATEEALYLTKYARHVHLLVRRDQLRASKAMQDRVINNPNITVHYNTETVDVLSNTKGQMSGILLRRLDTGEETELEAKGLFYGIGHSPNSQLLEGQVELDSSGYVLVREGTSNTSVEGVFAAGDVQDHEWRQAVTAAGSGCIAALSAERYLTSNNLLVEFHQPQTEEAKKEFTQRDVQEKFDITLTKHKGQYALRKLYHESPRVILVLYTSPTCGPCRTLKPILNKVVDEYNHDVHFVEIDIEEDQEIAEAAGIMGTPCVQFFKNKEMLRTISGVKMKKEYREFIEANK
T5 sequence (Q8VYK9 whole entry): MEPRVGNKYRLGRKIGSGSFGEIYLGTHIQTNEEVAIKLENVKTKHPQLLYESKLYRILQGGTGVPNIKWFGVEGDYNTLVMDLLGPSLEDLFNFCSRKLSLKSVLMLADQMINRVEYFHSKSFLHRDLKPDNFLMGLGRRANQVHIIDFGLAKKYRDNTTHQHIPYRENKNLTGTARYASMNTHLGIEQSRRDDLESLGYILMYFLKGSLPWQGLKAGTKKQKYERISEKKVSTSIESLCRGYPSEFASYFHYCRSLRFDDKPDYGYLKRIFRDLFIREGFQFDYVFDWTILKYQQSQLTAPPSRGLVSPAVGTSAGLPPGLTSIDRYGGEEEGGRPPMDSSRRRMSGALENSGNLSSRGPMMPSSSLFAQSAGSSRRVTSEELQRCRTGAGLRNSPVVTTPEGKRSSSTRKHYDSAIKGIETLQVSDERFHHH
T9 sequence (Q39211 whole entry): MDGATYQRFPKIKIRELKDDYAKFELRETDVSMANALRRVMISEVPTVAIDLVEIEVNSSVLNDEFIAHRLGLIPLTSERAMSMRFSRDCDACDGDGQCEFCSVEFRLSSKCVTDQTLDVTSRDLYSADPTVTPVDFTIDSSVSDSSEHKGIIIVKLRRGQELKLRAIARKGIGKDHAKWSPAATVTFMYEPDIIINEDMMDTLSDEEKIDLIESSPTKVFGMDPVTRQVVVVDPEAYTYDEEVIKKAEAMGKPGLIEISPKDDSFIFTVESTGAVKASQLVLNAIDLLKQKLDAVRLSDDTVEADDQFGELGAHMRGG
T3 sequence (Q9FFH8 whole entry): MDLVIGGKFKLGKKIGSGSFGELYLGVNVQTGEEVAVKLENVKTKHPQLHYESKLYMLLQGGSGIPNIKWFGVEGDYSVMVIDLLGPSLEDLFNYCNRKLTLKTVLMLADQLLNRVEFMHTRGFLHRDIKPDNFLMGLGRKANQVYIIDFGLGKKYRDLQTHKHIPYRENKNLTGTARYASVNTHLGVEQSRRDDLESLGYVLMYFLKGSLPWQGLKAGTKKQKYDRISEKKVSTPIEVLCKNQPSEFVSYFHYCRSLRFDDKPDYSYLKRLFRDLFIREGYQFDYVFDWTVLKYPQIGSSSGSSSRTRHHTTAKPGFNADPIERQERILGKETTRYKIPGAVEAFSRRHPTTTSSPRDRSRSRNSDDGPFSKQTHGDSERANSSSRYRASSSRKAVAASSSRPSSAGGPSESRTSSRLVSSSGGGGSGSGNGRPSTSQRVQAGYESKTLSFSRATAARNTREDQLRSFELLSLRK
T1 sequence (P42158 whole entry): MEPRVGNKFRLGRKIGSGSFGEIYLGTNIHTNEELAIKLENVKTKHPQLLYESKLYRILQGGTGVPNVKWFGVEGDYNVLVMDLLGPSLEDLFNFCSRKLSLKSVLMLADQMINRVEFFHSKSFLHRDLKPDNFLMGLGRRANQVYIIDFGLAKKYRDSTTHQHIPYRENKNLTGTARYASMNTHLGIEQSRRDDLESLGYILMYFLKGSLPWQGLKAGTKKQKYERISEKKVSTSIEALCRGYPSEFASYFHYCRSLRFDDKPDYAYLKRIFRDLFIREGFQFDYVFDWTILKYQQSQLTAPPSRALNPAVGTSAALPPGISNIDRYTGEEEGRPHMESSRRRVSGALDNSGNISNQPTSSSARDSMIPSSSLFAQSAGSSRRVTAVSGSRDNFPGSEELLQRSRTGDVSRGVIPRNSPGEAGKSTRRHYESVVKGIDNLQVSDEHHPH
T7 sequence (Q9C5M3 whole entry): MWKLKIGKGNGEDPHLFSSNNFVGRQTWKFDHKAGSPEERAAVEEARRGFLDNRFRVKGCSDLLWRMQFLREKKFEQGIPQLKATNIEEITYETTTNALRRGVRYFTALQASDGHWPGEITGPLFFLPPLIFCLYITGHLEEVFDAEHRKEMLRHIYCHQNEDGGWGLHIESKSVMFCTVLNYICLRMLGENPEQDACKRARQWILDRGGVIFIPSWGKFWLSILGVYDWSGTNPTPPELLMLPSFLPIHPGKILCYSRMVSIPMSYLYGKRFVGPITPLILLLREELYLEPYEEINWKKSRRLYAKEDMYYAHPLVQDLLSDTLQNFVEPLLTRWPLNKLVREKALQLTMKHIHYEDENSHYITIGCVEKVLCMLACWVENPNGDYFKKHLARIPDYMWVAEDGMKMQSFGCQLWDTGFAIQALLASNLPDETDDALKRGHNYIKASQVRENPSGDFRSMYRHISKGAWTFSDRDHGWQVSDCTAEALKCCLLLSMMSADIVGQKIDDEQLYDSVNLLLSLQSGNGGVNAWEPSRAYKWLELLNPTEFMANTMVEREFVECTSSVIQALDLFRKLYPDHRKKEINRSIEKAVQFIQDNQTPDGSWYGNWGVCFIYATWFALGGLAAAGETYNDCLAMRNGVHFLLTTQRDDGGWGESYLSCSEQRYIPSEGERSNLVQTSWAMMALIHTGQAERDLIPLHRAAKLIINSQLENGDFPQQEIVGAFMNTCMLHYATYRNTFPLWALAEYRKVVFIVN
T2 sequence (Q9CAI5 whole entry): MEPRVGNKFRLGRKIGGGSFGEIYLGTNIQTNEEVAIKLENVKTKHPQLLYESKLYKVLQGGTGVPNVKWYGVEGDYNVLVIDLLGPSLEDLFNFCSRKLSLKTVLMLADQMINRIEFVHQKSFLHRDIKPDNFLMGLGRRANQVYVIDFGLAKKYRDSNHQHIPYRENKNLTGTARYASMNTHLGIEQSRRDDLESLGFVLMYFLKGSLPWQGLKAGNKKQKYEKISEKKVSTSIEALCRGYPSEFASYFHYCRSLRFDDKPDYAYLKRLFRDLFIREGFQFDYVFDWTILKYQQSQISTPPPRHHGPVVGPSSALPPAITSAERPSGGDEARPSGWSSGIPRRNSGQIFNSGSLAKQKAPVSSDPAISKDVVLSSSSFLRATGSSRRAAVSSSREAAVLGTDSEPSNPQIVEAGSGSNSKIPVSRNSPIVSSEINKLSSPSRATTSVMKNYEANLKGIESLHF
T4 sequence (Q9LSX4 whole entry): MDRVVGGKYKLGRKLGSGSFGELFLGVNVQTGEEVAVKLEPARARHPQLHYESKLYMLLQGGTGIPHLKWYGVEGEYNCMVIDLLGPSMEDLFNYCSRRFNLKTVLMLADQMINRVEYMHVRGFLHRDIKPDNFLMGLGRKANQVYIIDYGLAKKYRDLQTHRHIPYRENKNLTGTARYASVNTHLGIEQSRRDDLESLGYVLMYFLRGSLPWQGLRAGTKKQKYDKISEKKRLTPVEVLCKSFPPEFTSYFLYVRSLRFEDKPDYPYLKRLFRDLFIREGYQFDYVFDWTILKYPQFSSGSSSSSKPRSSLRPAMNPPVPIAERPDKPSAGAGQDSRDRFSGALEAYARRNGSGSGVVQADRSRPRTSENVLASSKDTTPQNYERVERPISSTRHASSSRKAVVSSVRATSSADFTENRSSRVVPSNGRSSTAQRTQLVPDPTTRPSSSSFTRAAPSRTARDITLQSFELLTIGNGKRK
Sequence of CKL1 (P42158 whole entry): as the sequence (P42158 whole entry) above

C#CCn1c2c(c(Br)c1-c1ccncc1)C(=O)NCC2.Cl [AMI‐331]
IC50 (CKL1): 1400 nM
Spectra on AMI‐329 beads relative to 0 µM sample [1]: 0%–13%
Target status from enrichment in 0 µM versus 5 or 50 µM samples (CPK family): not a target
Spectra (PSMs) AMI‐329 beads bound (CKL1 (AT4G26100); competitor AMI‐331 5 µM): 2 PSMs
Spectra (PSMs) AMI‐329 beads bound (CKL1 (AT4G26100); competitor AMI‐331 50 µM): 0 PSMs
Spectra (PSMs) AMI‐329 beads bound (CKL2 (AT1G72710); competitor AMI‐331 5 µM): 1 PSMs
Spectra (PSMs) AMI‐329 beads bound (CKL2 (AT1G72710); competitor AMI‐331 50 µM): 0 PSMs
Spectra (PSMs) AMI‐329 beads bound (CKL7 (AT5G44100); competitor AMI‐331 5 µM): 1 PSMs
Spectra (PSMs) AMI‐329 beads bound (CKL7 (AT5G44100); competitor AMI‐331 50 µM): 0 PSMs
Spectra (PSMs) AMI‐329 beads bound (CKL8 (AT5G43320); competitor AMI‐331 5 µM): 0 PSMs
Spectra (PSMs) AMI‐329 beads bound (CKL8 (AT5G43320); competitor AMI‐331 50 µM): 0 PSMs
Spectra (PSMs) AMI‐329 beads bound (CKL12 (AT5G57015); competitor AMI‐331 5 µM): 2 PSMs
Spectra (PSMs) AMI‐329 beads bound (CKL12 (AT5G57015); competitor AMI‐331 50 µM): 0 PSMs
Spectra (PSMs) AMI‐329 beads bound (CKL13 (AT1G04440); competitor AMI‐331 5 µM): 0 PSMs
Spectra (PSMs) AMI‐329 beads bound (CKL13 (AT1G04440); competitor AMI‐331 50 µM): 0 PSMs
Spectra (PSMs) AMI‐329 beads bound (LUP1 (AT1G78970); competitor AMI‐331 5 µM): 0 PSMs
Spectra (PSMs) AMI‐329 beads bound (LUP1 (AT1G78970); competitor AMI‐331 50 µM): 0 PSMs
Spectra (PSMs) AMI‐329 beads bound ([2]; competitor AMI‐331 5 µM): 0 PSMs
Spectra (PSMs) AMI‐329 beads bound ([2]; competitor AMI‐331 50 µM): 0 PSMs
Spectra (PSMs) AMI‐329 beads bound (NRPB3 (AT2G15430); competitor AMI‐331 5 µM): 0 PSMs
Spectra (PSMs) AMI‐329 beads bound (NRPB3 (AT2G15430); competitor AMI‐331 50 µM): 0 PSMs
Spectra (PSMs) AMI‐329 beads bound (Reductase C (AT2G41680); competitor AMI‐331 5 µM): 0 PSMs
Spectra (PSMs) AMI‐329 beads bound (Reductase C (AT2G41680); competitor AMI‐331 50 µM): 0 PSMs
Spectra (PSMs) AMI‐329 beads bound (YAK1 (AT5G35980); competitor AMI‐331 5 µM): 0 PSMs
Spectra (PSMs) AMI‐329 beads bound (YAK1 (AT5G35980); competitor AMI‐331 50 µM): 0 PSMs
